Laboratory results from patent US20080319020A1, “4-Oxadiazolyl-Piperidine Compounds and Use Thereof” (Purdue Pharma L.P., priority 2005, published 2008).
Where two headings read alike, the source gives them in different places.

Legend:
μ opioid receptor [1] = biological target: T1, μ opioid receptor (Homo sapiens, UniProt P35372); assay: μ-receptor [35S]GTPγS functional assay; assay type: biochemical; conditions: for Emax: maximal effect relative to DAMGO, read-out: μ GTP Emax
Protocol: [^35S]GTPγS functional assays are conducted using freshly thawed ORL-1 or μ-receptor membranes, as appropriate. Assay reactions are prepared by sequentially adding the following reagents to binding buffer (100 mM NaCl, 10 mM MgCl2, 20 mM HEPES, pH 7.4) on ice (final concentrations indicated): membrane protein (0.066 mg/mL for ORL-1 receptor and 0.026 mg/mL for μ-receptor), saponin ([…]), GDP ([…]) and [^35S]GTPγS (0.20 nM; NEN). Aliquots of the prepared membrane solution (190 μL/well) are transferred to 96-shallow well polypropylene plates containing 10 μL of 20× concentrated stock solutions of the agonist nociceptin prepared in dimethyl sulfoxide (“DMSO”). Plates are incubated for 30 min at room temperature with shaking. Reactions are terminated by rapid filtration onto 96-well Unifilter GF/B filter plates (Packard, Meriden, Conn.) using a 96-well tissue harvester (Brandel, Gaithersburg, Md.) followed by three filtration washes with 200 μL of ice-cold binding buffer (10 mM NaH2PO4, 10 mM Na2HPO4, pH 7.4). Filter plates are subsequently dried at 50° C. for 2-3 h. BetaScint scintillation cocktail (Wallac, Turku, Finland) is added (50 μL/well) and plates are counted using a Packard Top-Count for 1 min/well. Data are analyzed using the sigmoidal dose-response curve fitting functions in GraphPad PRISM, v. 3.0.
μ GTP EC50 is the concentration of a compound providing 50% of the maximal response for the compound at a μ receptor.
μ GTP Emax % is the maximal effect elicited by a compound relative to the effect elicited by [D-Ala2, N-methyl-Phe4, Gly-ol5]-enkephalin (“DAMGO”), a standard μ agonist. Generally, the μ GTP Emax (%) value measures the efficacy of a compound to treat or prevent pain or diarrhea.

[2] = biological target: T2, human opioid receptor-like (ORL-1) receptor (Homo sapiens, UniProt P41146); assay: ORL-1 receptor radioligand dose-displacement binding assay ([3H]-nociceptin)
T2 construct: host or cells: HEK-293
Protocol: All reagents are obtained from Sigma (St. Louis, Mo.) unless noted otherwise. Membranes from recombinant HEK-293 cells expressing the human opioid receptor-like (ORL-1) receptor (Perkin Elmer, Boston, Mass.) are prepared by lysing cells in ice-cold hypotonic buffer (2.5 mM MgCl2, 50 mM HEPES, pH 7.4) (10 mL/10 cm dish), followed by homogenization with a tissue grinder/teflon pestle. Membranes are collected by centrifugation at 30,000×g for 15 min at 4° C., and pellets are resuspended in hypotonic buffer to a final concentration of 1-3 mg/mL. Protein concentrations are determined using the BioRad (Hercules, Calif.) protein assay reagent with bovine serum albumen as standard. Aliquots of the ORL-1 receptor membranes are stored at −80° C.
(§1) Radioligand dose-displacement binding assays for ORL-1 and μ receptors use 0.1 nM [^3H]-nociceptin or 0.2 nM [^3H]-diprenorphine (NEN, Boston, Mass.), respectively, with […] membrane protein/well in a final volume of […] binding buffer (10 mM MgCl2, 1 mM EDTA, 5% DMSO, 50 mM HEPES, pH 7.4). Reactions are carried out in the absence or presence of increasing concentrations of unlabeled nociceptin (American Peptide Company, Sunnyvale, Calif.) or naloxone, for ORL-1 and […], respectively. All reactions are conducted in 96-deep well polypropylene plates for 1-2 h at room temperature. Binding reactions are terminated by rapid filtration onto 96-well Unifilter GF/C filter plates (Packard, Meriden, Conn.) presoaked in 0.5% polyethylenimine using a 96-well tissue harvester (Brandel, Gaithersburg, Md.) followed by three filtration washes with 500 μL of ice-cold binding buffer. Filter plates are subsequently dried at 50° C. for 2-3 h. BetaScint scintillation cocktail (Wallac, Turku, Finland) is added (50 μl/well), and plates are counted using a Packard Top-Count for 1 min/well. The data are analyzed using the one-site competition curve fitting functions in GraphPad PRISM v. 3.0 (San Diego, Calif.).

delta opioid receptor [3] = biological target: T3, delta opioid receptor (Homo sapiens, UniProt P41143); assay: δ opioid receptor binding assay ([3H]-Naltrindole)
T3 construct: purchased Perkin Elmer; host or cells: CHO-K1
Protocol: Radioligand dose-displacement assays used 0.2 nM [^3H]-Naltrindole (NEN; 33.0 Ci/mmole) with 10-20 μg membrane protein (recombinant delta opioid receptor expressend in CHO-K1 cells; Perkin Elmer) in a final volume of 500 μl binding buffer (5 mM MgCl2, 5% DMSO, 50 mM Trizma base, pH 7.4). Non-specific binding was determined in the presence of 25 μM unlabeled naloxone. All reactions were performed in 96-deep well polypropylene plates for 1 h at room temperature. Binding reactions were determined by rapid filtration onto 96-well Unifilter GF/C filter plates (Packard) presoaked in 0.5% polyethylenimine (Sigma). Harvesting was performed using a 96-well tissue harvester (Packard) followed by five filtration washes with 500 μl ice-cold binding buffer. Filter plates were subsequently dried at 50° C. for 1-2 hours. Fifty μl/well scintillation cocktail (MicroScint, Packard) was added and plates were counted in a Packard Top-Count for 1 min/well.

μ opioid receptor [4] = biological target: T1, μ opioid receptor; assay: μ-opioid receptor radioligand dose-displacement binding assay ([3H]-diprenorphine)
Protocol: as §1

kappa opioid receptor [5] = biological target: T4, kappa opioid receptor (Homo sapiens, UniProt P41145); assay: κ opioid receptor binding assay ([3H]-U69,593)
T4 construct: expressed in transfected cells; host or cells: HEK-293
Protocol: Membranes from recombinant HEK-293 cells expressing the human kappa opioid receptor (kappa) (cloned in house) were prepared by lysing cells in ice cold hypotonic buffer (2.5 mM MgCl2, 50 mM HEPES, pH 7.4) (10 ml/10 cm dish) followed by homogenization with a tissue grinder/teflon pestle. Membranes were collected by centrifugation at 30,000×g for 15 min at 4° C. and pellets resuspended in hypotonic buffer to a final concentration of 1-3 mg/ml. Protein concentrations were determined using the BioRad protein assay reagent with bovine serum albumen as standard. Aliquots of kappa receptor membranes were stored at −80° C.
Radioligand dose displacement assays used 0.4-0.8 nM [^3H]-U69,593 (NEN; 40 Ci/mmole) with 10-20 μg membrane protein (recombinant kappa opioid receptor expressed in HEK 293 cells; in-house prep) in a final volume of 200 μl binding buffer (5% DMSO, 50 mM Trizma base, pH 7.4). Non-specific binding was determined in the presence of 10 μM unlabeled naloxone or U69,593. All reactions were performed in 96-well polypropylene plates for 1 h at room temperature. Binding reactions were determined by rapid filtration onto 96-well Unifilter GF/C filter plates (Packard) presoaked in 0.5% polyethylenimine (Sigma). Harvesting was performed using a 96-well tissue harvester (Packard) followed by five filtration washes with 200 μl ice-cold binding buffer. Filter plates were subsequently dried at 50° C. for 1-2 hours. Fifty μl/well scintillation cocktail (MicroScint; Packard) was added and plates were counted in a Packard Top-Count for 1 min/well.

kappa opioid receptor [6] = biological target: T4, kappa opioid receptor; assay: κ opioid receptor functional [35S]GTPγS binding assay; assay type: biochemical; conditions: for Emax: maximal effect relative to U69,593, read-out: κ GTP Emax
Protocol: κ GTP EC50 is the concentration of a compound providing 50% of the maximal response for the compound at an K receptor.
κ GTP Emax % is the maximal effect elicited by a compound relative to the effect elicited by U69,593.
(§2) The κ and δ opioid receptor functional [^35S]GTPγS binding assays were conducted as follows. Kappa or delta opioid receptor membrane solution was prepared by sequentially adding final concentrations of 0.026 μg/μl membrane protein (kappa: in-house, delta: Perkin Elmer), 10 μg/ml saponin, 3 μM GDP and 0.20 nM [^35S]GTPγS to binding buffer (100 mM NaCl, 10 mM MgCl2, 20 mM HEPES, pH 7.4) on ice. The prepared membrane solution (190 μl/well) was transferred to 96-shallow well polypropylene plates containing 10 μl of 20× concentrated stock solutions of agonist prepared in DMSO. Plates were incubated for 30 min at room temperature with shaking. Reactions were terminated by rapid filtration onto 96-well tissue harvester (Packard) and followed by three filtration washes with 200 μl ice-cold binding buffer (10 mM NaH2PO4), 10 mM Na2HPO4, pH 7.4). Filter plates were subsequently dried at 50° C. for 2-3 hours. Fifty μl/well scintillation cocktail (MicroScint20, Packard) was added and plates were counted in a Packard Top-Count for 1 min/well.

delta opioid receptor [7] = biological target: T3, delta opioid receptor; assay: δ opioid receptor functional [35S]GTPγS binding assay; assay type: biochemical; conditions: for Emax: maximal effect relative to met-enkephalin, read-out: δ GTP Emax
Protocol: δ GTP EC50 is the concentration of a compound providing 50% of the maximal response for the compound at an δ receptor.
δ GTP Emax % is the maximal effect elicited by a compound relative to the effect elicited by met-enkephalin.
as §2

ORL-1 receptor = biological target: T5, ORL-1 receptor (Homo sapiens, UniProt P41146); assay: ORL-1 receptor [35S]GTPγS functional assay; assay type: biochemical
T5 construct: host or cells: HEK-293
Protocol: Filter plates are subsequently dried at 50° C. for 2-3 h. […] 3.0.

[8] = Ki for binding to μ-opioid receptors

T1 sequence (P35372 whole entry): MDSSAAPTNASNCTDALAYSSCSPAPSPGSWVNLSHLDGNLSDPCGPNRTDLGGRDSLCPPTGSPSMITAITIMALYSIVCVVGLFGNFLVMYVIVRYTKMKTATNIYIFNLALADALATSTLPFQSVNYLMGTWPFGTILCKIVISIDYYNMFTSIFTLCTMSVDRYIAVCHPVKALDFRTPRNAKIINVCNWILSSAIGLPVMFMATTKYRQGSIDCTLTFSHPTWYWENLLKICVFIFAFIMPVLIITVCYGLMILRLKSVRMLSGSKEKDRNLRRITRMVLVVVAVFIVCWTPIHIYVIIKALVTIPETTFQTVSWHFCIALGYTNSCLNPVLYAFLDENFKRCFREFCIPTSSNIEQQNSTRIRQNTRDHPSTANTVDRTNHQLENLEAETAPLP
T4 sequence (P41145 whole entry): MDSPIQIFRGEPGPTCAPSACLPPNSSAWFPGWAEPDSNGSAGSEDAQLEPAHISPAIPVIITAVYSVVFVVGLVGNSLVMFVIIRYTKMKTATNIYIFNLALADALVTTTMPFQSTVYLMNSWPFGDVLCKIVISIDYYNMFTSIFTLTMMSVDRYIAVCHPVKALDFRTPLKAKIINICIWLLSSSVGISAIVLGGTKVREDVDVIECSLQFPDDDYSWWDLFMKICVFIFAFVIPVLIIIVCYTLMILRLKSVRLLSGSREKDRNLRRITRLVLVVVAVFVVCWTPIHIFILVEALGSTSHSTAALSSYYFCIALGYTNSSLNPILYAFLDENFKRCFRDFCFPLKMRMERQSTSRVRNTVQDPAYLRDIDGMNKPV
T3 sequence (P41143 whole entry): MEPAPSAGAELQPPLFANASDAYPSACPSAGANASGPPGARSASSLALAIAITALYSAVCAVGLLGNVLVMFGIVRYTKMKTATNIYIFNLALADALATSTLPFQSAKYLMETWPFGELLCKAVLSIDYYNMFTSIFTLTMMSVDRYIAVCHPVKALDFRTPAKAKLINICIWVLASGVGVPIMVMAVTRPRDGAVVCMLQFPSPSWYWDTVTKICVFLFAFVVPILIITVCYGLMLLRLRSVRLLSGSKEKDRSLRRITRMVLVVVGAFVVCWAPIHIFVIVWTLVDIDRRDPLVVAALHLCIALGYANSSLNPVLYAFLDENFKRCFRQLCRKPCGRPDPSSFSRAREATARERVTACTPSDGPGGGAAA
T2 sequence (P41146 whole entry): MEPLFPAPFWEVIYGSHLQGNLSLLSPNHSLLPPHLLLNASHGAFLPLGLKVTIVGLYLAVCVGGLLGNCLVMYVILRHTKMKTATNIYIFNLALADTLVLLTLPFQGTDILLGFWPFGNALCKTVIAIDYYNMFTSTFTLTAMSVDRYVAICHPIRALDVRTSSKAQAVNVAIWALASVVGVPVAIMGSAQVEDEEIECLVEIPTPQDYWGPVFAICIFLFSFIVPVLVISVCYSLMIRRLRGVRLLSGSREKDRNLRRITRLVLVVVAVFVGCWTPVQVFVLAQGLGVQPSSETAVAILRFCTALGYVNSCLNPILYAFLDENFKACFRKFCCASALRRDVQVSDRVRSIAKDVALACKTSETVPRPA
T5 sequence (P41146 whole entry): as above

`CN(C)C(=O)C(CCN1CCC(c2ccccc2)(c2noc(CC(N)=O)n2)CC1)(c1ccccc1)c1ccccc1` [AFE] gave an EC50 (μ opioid receptor [1]) of 16.1 nM, an Emax (μ opioid receptor [1]) of 116% and a Ki [2] of 1840 nM. It also gave a Ki (delta opioid receptor [3]) of 3620 nM, a Ki (μ opioid receptor [4]; [8]) of 5.9 nM and a Ki (μ opioid receptor [4]; μ Ki) of 5.92 nM. The Ki (kappa opioid receptor [5]) was 152 nM, the EC50 (kappa opioid receptor [6]) was 1260 nM and the Emax (kappa opioid receptor [6]) was 44.7%.
`CCOC(=O)Cc1nc(C2(c3ccccc3)CCN(CCC(C(=O)N3CCCC3)(c3ccccc3)c3ccccc3)CC2)no1` [AGE] gave an Emax (μ opioid receptor [1]) of 103%, an EC50 (μ opioid receptor [1]; read-out: μ GTP EC50) of 2.03 nM and a Ki [2] of 3850 nM. It also gave a Ki (delta opioid receptor [3]; read-out: δ Ki) of 341 nM, a Ki (μ opioid receptor [4]; read-out: Ki for binding to μ-opioid receptors) of 1.3 nM and a Ki (μ opioid receptor [4]; read-out: μ Ki) of 1.29 nM. It also gave an Emax (delta opioid receptor [7]) of 104%, an EC50 (delta opioid receptor [7]; read-out: δ GTP EC50) of 21.5 nM and a Ki (kappa opioid receptor [5]; read-out: κ Ki) of 91.9 nM. The Emax (kappa opioid receptor [6]) was 56% and the EC50 (kappa opioid receptor [6]; read-out: κ GTP EC50) was 704 nM.
For `NC(=O)Cc1nc(C2(c3ccccc3)CCN(CCC(C(=O)N3CCCC3)(c3ccccc3)c3ccccc3)CC2)no1` [AFX], the EC50 (μ opioid receptor [1]) was 8.09 nM, the Emax (μ opioid receptor [1]) was 90% and the Ki [2] was 1290 nM. For the same compound, the Ki (delta opioid receptor [3]) was 2320 nM, the Ki (μ opioid receptor [4]; [8]) was 4.8 nM and the Ki (μ opioid receptor [4]; μ Ki) was 4.82 nM. The Ki (kappa opioid receptor [5]) was 365 nM, the EC50 (kappa opioid receptor [6]) was 3830 nM and the Emax (kappa opioid receptor [6]) was 41.7%.
`CCOC(=O)Cc1nc(C2(c3ccccc3)CCN(CCC(C(=O)N(C)C)(c3ccccc3)c3ccccc3)CC2)no1` [AFL] was tested, and the EC50 (μ opioid receptor [1]) was 1.04 nM, the Emax (μ opioid receptor [1]) was 117% and the EC50 (ORL-1 receptor) was greater than 20000 nM. For the same compound, the Emax (ORL-1 receptor; maximal effect relative to nociceptin, read-out: ORL1 GTP Emax) was 28%, the Ki [2] was 696 nM and the Ki (delta opioid receptor [3]) was 223 nM. It also gave a Ki (μ opioid receptor [4]; [8]) of 1.1 nM, a Ki (μ opioid receptor [4]; μ Ki) of 1.11 nM and an EC50 (delta opioid receptor [7]) of 84 nM. For the same compound, the Emax (delta opioid receptor [7]) was 114%, the Ki (kappa opioid receptor [5]) was 32.9 nM and the EC50 (kappa opioid receptor [6]) was 1680 nM. It also gave an Emax (kappa opioid receptor [6]) of 52.7%.
